The text below walks through data of US20060049177A1, “Induction heating cooker” (LG Electronics Inc., priority 2004, published 2006).

One data set deals with MT-4 cells. The experiment in a line: cytotoxicity in mock-infected MT-4 cells (MTT). On the procedure:
(§1) A rapid, sensitive and automated assay procedure was used for the in vitro evaluation of anti-HIV agents. An […] T4-cell line, MT-4, which was previously shown (Koyanagi et al., Int. J. Cancer, 36, 445-451, 1985) to be highly susceptible to and permissive for HIV infection, served as the target cell line. Inhibition of the HIV-induced cytopathic effect was used as the end point. The viability of both HIV- and mock-infected cells was assessed spectrophotometrically via the in situ reduction of 3-(4,5-dimethylthiazol-2-yl)-2,5-diphenyltetrazolium bromide (MTT). The 50% […], cytotoxic concentration (CC50 in μM) was defined as the concentration of compound that reduced the absorbance of the mock-infected control sample by 50%. The percent protection achieved by the compound in HIV-infected cells was calculated by the following formula: [formula]
(§2) whereby (ODT)HIV is the optical density measured with a given concentration of the test compound in HIV-infected cells; (ODC)HIV is the optical density measured for the control untreated HIV-infected cells; (ODC)MOCK is the optical density measured for the control untreated mock-infected cells; all optical density values were determined at 540 nm. The dose achieving 50% protection according to the above formula was defined as the 50% inhibitory concentration (IC50 in μM). The ratio of CC50 to IC50 was defined as the selectivity index (SI).

A further data set deals with HIV-1. Kind of data set: in vitro anti-HIV assay: inhibition of HIV-induced cytopathic effect in MT-4 cells (MTT). In kind it is cell-based. Particulars: for IC50: HIV-infected MT-4 cells, dose achieving 50% protection against cytopathic effect, MTT, OD 540 nm, mean value, read-out: IC50; for SI: selectivity index = ratio of CC50 to IC50. On the procedure:
as §1, §2
In general terms: Protection from cytopathic effect is a common read-out in antiviral testing.

Read-outs that look alike come from different tables or passages of the source. Where only a bound is given, the exact number is not on record here.

As for `Nc1nc(Cc2c(Cl)cccc2Cl)nc(Nc2ccc(Cl)cc2)n1` [Compound 5], the CC50 – broadly, the concentration that lowers cell viability or growth by half – in the data set with MT-4 cells was 47.5 µM. In addition, in the data set on HIV-1, the IC50 (as a rule, the concentration that inhibits the measured activity by half) turned out to be 17 nM and the SI was found to be 2793.

In the case of `CC(C)NC(=O)Nc1nc(Cc2c(Cl)cccc2Cl)nc(Nc2ccc(C#N)cc2)n1` [Compound 6, N-[4-[(4-cyano-phenyl)amino]-6-[(2,6-dichlorophenyl)methyl]-1,3,5-triazin-2-yl]-N′-(1-methylethyl)-urea], the melting point (usually the temperature of the solid-liquid transition) lay in the range of 267 to 268 °C. For the same compound, the IC50 in the data set on HIV-1 (Human immunodeficiency virus 1, MT4) came to 380 nM. Moreover, the SI in the data set with HIV-1 is reported as over 263.

In the data set on MT-4 cells, `CN(C)c1nc(Cc2c(Cl)cccc2Cl)nc(Nc2ccc(C#N)cc2)n1` [Compound 10] displayed a CC50 of over 100 µM. Besides, in the data set on HIV-1, the IC50 was found to be 170 nM and the SI is over 602.

Take `N#Cc1ccc(Nc2nc(Cc3c(Cl)cccc3Cl)nc(Nc3ccc(C#N)cc3)n2)cc1` [Compound 11, N,N′-[6-[(2,6-dichlorophenyl)methyl]1,3,5-triazin-2,4-diyl]bis[4-aminobenzonitrile]]: in the data set with MT-4 cells, the CC50 stood at 6 µM. In the data set on HIV-1, the IC50 is over 10400 nM and the SI is recorded as under 1.

As to `CCN(CC)c1nc(Cc2c(Cl)cccc2Cl)nc(Nc2ccc(C#N)cc2)n1` [Compound 12], the CC50 in the data set on MT-4 cells is over 20 µM. Also, in the data set with HIV-1, the IC50 was 8100 nM and the SI is recorded as over 2.

In the data set with MT-4 cells, `COC(=O)CNc1nc(Cc2c(Cl)cccc2Cl)nc(Nc2ccc(C#N)cc2)n1` [Compound 13] yielded a CC50 of over 20 µM. For the same compound, in the data set on HIV-1, the IC50 came out at 110 nM and the SI is over 178.

Turning to `CCOC(=O)CC[C@H](Nc1nc(Cc2c(Cl)cccc2Cl)nc(Nc2ccc(C#N)cc2)n1)C(=O)OCC` [Compound 17], the CC50 with MT-4 cells was over 20 µM. In the data set with HIV-1, the IC50 stood at 4300 nM and the SI was over 4.

As to `N#Cc1ccc(Nc2nc(Cc3c(Cl)cccc3Cl)nc(NCCO)n2)cc1` [Compound 18], in the data set on MT-4 cells, the CC50 is over 20 µM. In the data set with HIV-1, the IC50 was 1 nM and the SI is over 2030.

As for `N#Cc1ccc(Nc2nc(Cc3c(Cl)cccc3Cl)nc(NCCN)n2)cc1` [Compound 19], in the data set with MT-4 cells, the midpoint of cytotoxicity, the CC50, lay at 10.4 µM. Besides, in the data set with HIV-1, the IC50 is 13 nM and the SI stood at 810.

`Cl.N#Cc1ccc(Nc2nc(Cc3c(Cl)cccc3Cl)nc(NO)n2)cc1.O` [Compound 21, 4-[[4-[(2,6-dichlorophenyl)methyl]-6-(hydroxyamino)-1,3,5-triazin-2-yl]amino]benzonitrile monohydrochloride.monohydrate] came in with a CC50 in the data set with MT-4 cells of 8.9 µM. For the same compound, in the data set on HIV-1, the IC50 turned out to be 2 nM and the SI is listed as 4924.

Compound `N#Cc1ccc(Nc2nc(Cc3c(Cl)cccc3Cl)nc(NCCCCO)n2)cc1` [Compound 24] came in with a CC50 in the data set with MT-4 cells of 36.1 µM. In the data set on HIV-1, the IC50 was 68 nM and the SI was found to be 529.

Regarding `N#Cc1ccc(Nc2nc(Cc3c(Cl)cccc3Cl)nc(NCCCO)n2)cc1` [Compound 25], half-maximal cytotoxicity with MT-4 cells (CC50) was put at 51.6 µM. For the same compound, in the data set on HIV-1, the IC50 stood at 29 nM and the SI amounted to 1773.

Compound `N#Cc1ccc(Nc2nc(Cc3c(Cl)cccc3Cl)nc(NCC(O)CO)n2)cc1` (centres unmarked) [Compound 26, (O)-4-[[4-[(2,6-dichlorophenyl)methyl]-6-[(2,3-dihydroxypropyl)amino]-1,3,5-triazin-2-yl]amino]benzonitrile] came in with a CC50 with MT-4 cells of 59.7 µM. Also, in the data set on HIV-1, the IC50 came to 68 nM and the SI is recorded as 883.

Take `N#Cc1ccc(Nc2nc(Cc3c(Cl)cccc3Cl)nc(NCCOCCO)n2)cc1` [Compound 27]: the CC50 with MT-4 cells was determined as 46.8 µM. Also, in the data set with HIV-1, the IC50 was found to be 56 nM and the SI stood at 837.

As for `CN(C)CCNc1nc(Cc2c(Cl)cccc2Cl)nc(Nc2ccc(C#N)cc2)n1` [Compound 29], the CC50 in the data set with MT-4 cells came to 8.7 µM. In the data set on HIV-1, the IC50 is 5 nM and the SI came out at 1741.

The compound `N#Cc1ccc(Nc2nc(Cc3c(Cl)cccc3Cl)nc(NCCCN)n2)cc1` [Compound 30] displayed a CC50 in the data set with MT-4 cells of 16.5 µM. Also, in the data set with HIV-1, the IC50 turned out to be 40 nM and the SI was found to be 416.

`CN(C)CCCNc1nc(Cc2c(Cl)cccc2Cl)nc(Nc2ccc(C#N)cc2)n1` [Compound 31] displayed a CC50 in the data set with MT-4 cells of 9.6 µM. In addition, in the data set on HIV-1, the IC50 came out at 19 nM and the SI is reported as 506.

In the case of `N#Cc1ccc(Nc2nc(Cc3c(Cl)cccc3Cl)nc(NC3CCOC3=O)n2)cc1` (centres unmarked) [Compound 32], the CC50 in the data set with MT-4 cells amounted to 83.4 µM. Further, in the data set with HIV-1, the IC50 stood at 2000 nM and the SI turned out to be 42.

In the data set with MT-4 cells, `N#Cc1ccc(Nc2nc(Cc3c(Cl)cccc3Cl)nc(NCCc3cccs3)n2)cc1` [Compound 35] came in with a CC50 of 53 µM. Further, in the data set with HIV-1, the IC50 amounted to 700 nM and the SI amounted to 75.

For `CONc1nc(Cc2c(Cl)cccc2Cl)nc(Nc2ccc(C#N)cc2)n1` [Compound 36], in the data set with MT-4 cells, half-maximal cytotoxicity (CC50) was put at 40.9 µM. In the data set on HIV-1, the IC50 came to 5 nM and the SI turned out to be 8097.

In the data set on MT-4 cells, `CCOC(=O)Nc1nc(Cc2c(Cl)cccc2Cl)nc(Nc2ccc(C#N)cc2)n1` [Compound 37] came in with a CC50 of 85 µM. In the data set on HIV-1, the IC50 is 11 nM and the SI is on record as 7948.

Regarding `CC(=O)Nc1nc(Cc2c(Cl)cccc2Cl)nc(N(C(C)=O)c2ccc(C#N)cc2)n1` [Compound 40], the CC50 with MT-4 cells was over 100 µM. For the same compound, in the data set with HIV-1, the IC50 is 2 nM and the SI is given as over 41666.

In the case of `CCOC(=O)N(C(=O)OCC)c1nc(Cc2c(Cl)cccc2Cl)nc(N(C(=O)OCC)c2ccc(C#N)cc2)n1` [Compound 41], the CC50 in the data set with MT-4 cells is 40.2 µM. For the same compound, in the data set on HIV-1, the 50% inhibitory concentration (IC50) came to 13 nM and the SI is given as 3125.

`N#Cc1ccc(Nc2nc(N)nc(Cc3c(Cl)ccc(Cl)c3Cl)n2)cc1` [Compound 44]: the CC50 in the data set on MT-4 cells was over 100 µM. Also, in the data set with HIV-1, the IC50 was found to be 3 nM and the SI is over 35087.

The compound `N#Cc1ccc(Nc2nc(N)nc(Cc3cccc(OC(F)(F)F)c3)n2)cc1` [Compound 45] showed a CC50 in the data set with MT-4 cells of over 100 µM. Also, in the data set with HIV-1, the IC50 was 430 nM and the SI is over 233.

For `COc1ccc(OC)c(Cc2nc(N)nc(Nc3ccc(C#N)cc3)n2)c1` [Compound 46], in the data set on MT-4 cells, the CC50 was over 100 µM. In addition, in the data set with HIV-1, the IC50 was 40 nM and the SI is over 2506.

The compound `Cc1ccc(C)c(Cc2nc(N)nc(Nc3ccc(C#N)cc3)n2)c1` [Compound 49] registered a CC50 in the data set on MT-4 cells of over 20 µM. In the data set with HIV-1, the IC50 is 91 nM and the SI was over 220.

`COc1cccc(Cc2nc(N)nc(Nc3ccc(C#N)cc3)n2)c1OC` [Compound 50] returned a CC50 with MT-4 cells of over 20 µM. Also, in the data set with HIV-1, the IC50 came to 79 nM and the SI is recorded as over 252.

In the data set with MT-4 cells, `N#Cc1ccc(Nc2nc(N)nc(Cc3cc(F)ccc3F)n2)cc1` [Compound 51] yielded a CC50 of over 20 µM. Further, in the data set with HIV-1, the IC50 stood at 31 nM and the SI is reported as over 640.

`COc1cc(Cc2nc(N)nc(Nc3ccc(C#N)cc3)n2)cc(OC)c1` [Compound 53] returned a CC50 in the data set on MT-4 cells of over 20 µM. Also, in the data set with HIV-1, the IC50 worked out at 410 nM and the SI is on record as over 48.

`Cc1cc(C)c(C)c(Cc2nc(N)nc(Nc3ccc(C#N)cc3)n2)c1C` [Compound 54] came in with a CC50 with MT-4 cells of 43.8 µM. Also, in the data set with HIV-1, the IC50 was found to be 5 nM and the SI was 9515.

In the data set with MT-4 cells, `COc1ccc(Br)cc1Cc1nc(N)nc(Nc2ccc(C#N)cc2)n1` [Compound 55] gave a CC50 of over 20 µM. Moreover, in the data set on HIV-1, the half-maximal inhibitory concentration (IC50) came to 52 nM and the SI was over 384.

In turn, `N#Cc1ccc(Nc2nc(N)nc(Cc3cc(C(F)(F)F)ccc3C(F)(F)F)n2)cc1` [Compound 56] displayed a CC50 with MT-4 cells of over 100 µM. Also, the IC50 with HIV-1 is over 74400 nM.

`Cc1ccc(C)c(Cc2nc(N)nc(Nc3ccc(C#N)cc3)n2)c1` [Compound 57] came in with a CC50 in the data set with MT-4 cells of 36.8 µM. Also, in the data set on HIV-1, the IC50 is 3 nM and the SI was found to be 11883.

As for `N#Cc1ccc(Nc2nc(N)nc(Cc3c(F)cccc3C(F)(F)F)n2)cc1` [Compound 58], it took 20 µM to reach half-maximal cytotoxicity with MT-4 cells (CC50). Moreover, in the data set on HIV-1, the IC50 is 14 nM and the SI is recorded as 1418.

In the data set with MT-4 cells, `N#Cc1ccc(Nc2nc(N)nc(Cc3cc(F)cc(F)c3)n2)cc1` [Compound 59] registered a CC50 of over 100 µM. Besides, in the data set on HIV-1, the IC50 was 420 nM and the SI was over 241.

For `COc1ccc(C(C)=O)cc1Cc1nc(N)nc(Nc2ccc(C#N)cc2)n1` [Compound 60], in the data set with MT-4 cells, the midpoint of cytotoxicity, the CC50, lay at 71.4 µM. In the data set with HIV-1, the IC50 was determined as 39 nM and the SI is given as 1841.

`CCO.Cl.N#Cc1ccc(Nc2nc(N)nc(C(CC3CC3)c3c(Cl)cccc3Cl)n2)cc1` (centres unmarked) [Compound 61] showed a CC50 with MT-4 cells of 53.4 µM. Further, in the data set on HIV-1, the IC50 is 6900 nM and the SI was 7.

Compound “(±)-2-[[4-[(4-cyanophenyl)amino]-6-[(2,6-dichlorophenyl)amino]-6-[(2,6-dichloro-phenyl)methyl]-1,3,5-triazin-2-yl]amino-4-hydroxybutanamide [Compound 34]” registered a cytotoxic concentration (CC50) with MT-4 cells of 42.3 µM. Besides, in the data set on HIV-1, the IC50 turned out to be 57 nM and the SI was 746.
